Results taken from paper PMC8402917 (Viruses, 2021).

Target: T1, SARS-CoV-2 3CLpro (3CL protease, main protease) (Severe acute respiratory syndrome coronavirus 2, UniProt P0DTD1)
T1 construct: gene rep
Test: biochemical

Structure (SMILES): CC1=C(/C=C/C(C)=C/C=C/C(C)=C/C(=O)O)C(C)(C)CCC1 [all-trans retinoic acid]
- IC50: 24.7 ± 1.65 µM
